Assay results reported in publication PMC6830242, “In vitro inhibition of Mycobacterium tuberculosis β-carbonic anhydrase 3 with Mono- and dithiocarbamates and evaluation of their toxicity using zebrafish developing embryos” (Journal of Enzyme Inhibition and Medicinal Chemistry, 2019).

Biological target: T1, Mtb β-CA3 (Mycobacterium tuberculosis, UniProt P96878)
T1 construct: gene Rv3273
Experiment: stopped-flow CO2 hydrase assay
Assay type: biochemical
Excerpt: stopped-flow CO2 hydrase assay on Mtb β-CA3

T1 sequence (P96878 555-764 limits assumed): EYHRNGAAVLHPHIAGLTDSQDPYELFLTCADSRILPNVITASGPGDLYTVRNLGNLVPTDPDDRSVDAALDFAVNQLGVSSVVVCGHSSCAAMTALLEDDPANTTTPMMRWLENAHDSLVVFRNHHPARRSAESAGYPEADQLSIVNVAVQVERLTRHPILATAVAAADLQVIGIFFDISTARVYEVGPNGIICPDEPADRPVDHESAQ

Row | Structure (SMILES) | Ki
1 | CCCN(CCC)C(=O)S [compound 1, 1] | 0.559 µM
2 | O=C(S)N1CCOCC1 [compound 2, MTC based morpholine 2] | 0.748 µM
3 | O=C(S)N1CCN(C(=O)S)CC1 [compound 3, 3] | 0.812 µM
4 | O=C(S)NCCc1ccccc1 [compound 5, phenylethyl 5] | 0.093 µM
5 | O=C(CN1CCN(C(=O)S)CC1)NC1CCCCC1 [compound 6, 6] | 0.781 µM
6 | COc1ccc(CCNC(=O)S)cc1OC [compound 7, 3,4-dimethoxyphenylethyl derivative 7] | 0.0979 µM
7 | CC(C)CN(CC(C)C)C(=S)S [compound 8, DTC 8] | 0.043 µM
8 | S=C(S)N1CCOCC1 [compound 9, morpholine DTC 9] | 0.0024 µM
9 | S=C(S)N1CCN(C(=S)S)CC1 [compound 10, bis-piperazine derivative DTC 10] | 0.008 µM
10 | O=C(CN1CCN(C(=S)S)CC1)NC1CCCCC1 [compound 11, DTC 11] | > 2 µM
